The source made the active and inactive calls. The rule behind the calls is not given here.
What was measured:
[1] = Growth inhibition of […] NIH3T3 cells incubated for 3 days by MTT assay; type: functional; conditions: NIH3T3, 72 h; time 3 day
BaF3 [2] = assay: Growth inhibition of mouse BaF3 cells incubated for 3 days by MTT assay; type: functional; conditions: BaF3, 72 h, time 3 day
[3] = Growth inhibition of […] NIH3T3 cells harboring RET C634Y mutant incubated for 3 days by MTT assay; type: functional; conditions: NIH3T3, 72 h; time 3 day
BaF3 [4] = type: functional; conditions: Mus musculus, BaF3, 72 h; time 3 day
BaF3 [5] = assay: Growth inhibition of mouse BaF3 cells harboring RET M918T mutant incubated for 3 days by MTT assay; type: functional; conditions: BaF3, 72 h, time 3 day
BaF3 [6] = assay: Growth inhibition of mouse BaF3 cells harboring RET V804M mutant incubated for 3 days by MTT assay; type: functional; conditions: BaF3, 72 h, time 3 day
BaF3 [7] = assay: Growth inhibition of mouse BaF3 cells over expressing wild type RET incubated for 3 days by MTT assay; type: functional; conditions: BaF3, 72 h, time 3 day
[8] = Growth inhibition of human TT cells incubated for 10 days by MTT assay; type: functional; conditions: 240 h, time 10 day
[9] = biological target: Proto-oncogene tyrosine-protein kinase receptor Ret (Homo sapiens, UniProt P07949, V804M)
Chain of Proto-oncogene tyrosine-protein kinase receptor Ret (Homo sapiens, UniProt P07949, V804M) (P07949 29-1114 V804M limits assumed): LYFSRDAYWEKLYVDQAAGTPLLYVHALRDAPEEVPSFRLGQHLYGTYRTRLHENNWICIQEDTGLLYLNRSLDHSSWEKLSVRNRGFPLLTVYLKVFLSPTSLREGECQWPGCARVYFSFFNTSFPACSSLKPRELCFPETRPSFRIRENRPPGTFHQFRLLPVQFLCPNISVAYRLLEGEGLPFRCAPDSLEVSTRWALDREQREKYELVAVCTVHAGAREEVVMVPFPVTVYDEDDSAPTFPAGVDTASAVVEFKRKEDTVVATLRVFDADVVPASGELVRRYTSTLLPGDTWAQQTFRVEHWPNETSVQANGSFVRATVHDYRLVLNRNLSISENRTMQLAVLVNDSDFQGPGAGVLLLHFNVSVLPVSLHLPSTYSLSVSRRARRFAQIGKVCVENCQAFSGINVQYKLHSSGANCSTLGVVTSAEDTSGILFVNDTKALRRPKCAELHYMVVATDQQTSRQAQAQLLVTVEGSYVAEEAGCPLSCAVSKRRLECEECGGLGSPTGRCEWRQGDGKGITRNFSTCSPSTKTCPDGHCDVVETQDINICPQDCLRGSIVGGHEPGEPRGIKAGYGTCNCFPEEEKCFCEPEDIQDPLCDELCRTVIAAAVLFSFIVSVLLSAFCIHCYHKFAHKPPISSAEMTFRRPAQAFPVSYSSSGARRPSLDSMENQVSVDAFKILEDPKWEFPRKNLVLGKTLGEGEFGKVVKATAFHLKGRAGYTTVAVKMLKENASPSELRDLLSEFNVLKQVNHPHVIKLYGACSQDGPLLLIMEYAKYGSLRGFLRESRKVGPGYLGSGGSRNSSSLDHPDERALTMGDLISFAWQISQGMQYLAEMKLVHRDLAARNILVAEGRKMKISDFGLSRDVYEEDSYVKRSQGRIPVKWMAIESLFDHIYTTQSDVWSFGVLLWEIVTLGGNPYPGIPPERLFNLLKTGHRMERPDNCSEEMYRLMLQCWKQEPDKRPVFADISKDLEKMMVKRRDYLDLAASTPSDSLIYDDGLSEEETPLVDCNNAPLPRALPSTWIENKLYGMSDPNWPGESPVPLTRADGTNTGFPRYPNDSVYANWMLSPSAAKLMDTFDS

[10] = biological target: Proto-oncogene tyrosine-protein kinase receptor Ret (Homo sapiens, UniProt P07949)
Chain of Proto-oncogene tyrosine-protein kinase receptor Ret (Homo sapiens, UniProt P07949) (P07949 whole entry): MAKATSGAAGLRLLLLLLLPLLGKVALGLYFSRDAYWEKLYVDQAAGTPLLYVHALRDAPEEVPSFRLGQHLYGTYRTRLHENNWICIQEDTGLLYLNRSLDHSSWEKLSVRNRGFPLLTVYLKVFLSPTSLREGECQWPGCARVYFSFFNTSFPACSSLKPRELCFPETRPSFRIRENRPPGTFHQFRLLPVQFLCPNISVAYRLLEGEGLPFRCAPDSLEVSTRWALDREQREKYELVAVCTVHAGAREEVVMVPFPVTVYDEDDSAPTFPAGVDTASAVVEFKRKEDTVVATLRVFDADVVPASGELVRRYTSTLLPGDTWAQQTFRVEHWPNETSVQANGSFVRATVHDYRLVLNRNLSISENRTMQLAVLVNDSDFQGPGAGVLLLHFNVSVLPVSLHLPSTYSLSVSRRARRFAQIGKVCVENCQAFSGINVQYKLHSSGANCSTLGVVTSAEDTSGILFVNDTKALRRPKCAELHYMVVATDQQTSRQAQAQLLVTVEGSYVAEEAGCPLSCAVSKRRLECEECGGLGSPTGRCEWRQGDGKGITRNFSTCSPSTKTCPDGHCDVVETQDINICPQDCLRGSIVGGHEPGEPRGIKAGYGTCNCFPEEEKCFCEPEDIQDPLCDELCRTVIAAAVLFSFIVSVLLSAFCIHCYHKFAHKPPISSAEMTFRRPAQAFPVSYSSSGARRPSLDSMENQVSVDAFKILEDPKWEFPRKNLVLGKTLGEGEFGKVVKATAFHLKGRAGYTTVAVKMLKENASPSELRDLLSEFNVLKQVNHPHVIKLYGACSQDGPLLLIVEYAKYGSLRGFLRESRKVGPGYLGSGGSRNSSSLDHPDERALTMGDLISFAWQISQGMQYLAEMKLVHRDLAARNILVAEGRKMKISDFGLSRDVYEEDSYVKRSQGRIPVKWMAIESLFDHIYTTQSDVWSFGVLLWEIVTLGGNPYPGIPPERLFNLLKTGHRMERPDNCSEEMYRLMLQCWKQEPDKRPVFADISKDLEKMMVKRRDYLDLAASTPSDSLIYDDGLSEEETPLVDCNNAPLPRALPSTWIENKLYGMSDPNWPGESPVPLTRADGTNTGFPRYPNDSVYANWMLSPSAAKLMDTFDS

[11] = Toxicity in NOD-SCID mouse xenografted with […] cells harboring RET C634Y mutant assessed as reduction in body weight at 30 mg/kg, po administered for 18 days and measured on day 18; type: organism-based; conditions: in vivo, 432 h, time 18 day
NIH3T3 = conditions: Homo sapiens, dose 30.0 mg/kg, time 18.0 day

GI50 (BaF3 [2]) [µM] | GI50 (BaF3 [4]) [µM] | GI50 (BaF3 [5]) [µM] | GI50 (BaF3 [6]) [µM] | GI50 (BaF3 [7]) [µM] | IC50 [9] [µM] | IC50 [10] [µM] | SMILES | GI50 [1] [µM] | GI50 [3] [µM] | GI50 [8] [µM] | Activity [11] | TGI (NIH3T3)
> 10 | > 10 | > 10 | > 10 | > 10 | 0.824 | 0.227 | COc1ccc(NC(=O)Nc2ccc(Nc3ncnc4c3OCCN4)cc2)cc1 | > 10 | > 10 | 6.12 | – | –
10 | 3.49 | 2.94 | 1.53 | 0.33 | 0.022 | 0.021 | CC(C)(C)c1cc(NC(=O)Nc2ccc(Nc3ncnc4c3OCCN4)c(F)c2)no1 | > 10 | 0.39 | 0.3 | – | –
> 10 | 5.72 | 4.76 | 2.03 | 0.73 | 0.044 | 0.05 | Cc1cc(NC(=O)Nc2cc(C(C)(C)C)on2)ccc1Nc1ncnc2c1OCCN2 | > 10 | 1.54 | 0.45 | – | –
> 10 | > 10 | > 10 | > 10 | > 10 | 5.11 | 1.47 | Cc1ccc(F)c(NC(=O)Nc2ccc(Nc3ncnc4c3OCCN4)cc2)c1 | > 10 | 10 | 5.82 | – | –
> 10 | 6.02 | 8.81 | 1.87 | 3.37 | 0.063 | 0.025 | CC(C)(C)c1cc(NC(=O)Nc2ccc(Nc3ncnc4c3OCCN4)c(O)c2)no1 | > 10 | 1.55 | 0.8 | – | –
10 | > 10 | > 10 | > 10 | > 10 | 1.3 | 0.865 | O=C(Nc1ccc(Nc2ncnc3c2OCCN3)cc1)Nc1cc(Cl)cc(Cl)c1 | > 10 | 8.05 | > 10 | – | –
> 10 | > 10 | > 10 | > 10 | 4.7 | 0.033 | 0.022 | COc1cc(NC(=O)Nc2cc(C(C)(C)C)on2)ccc1Nc1ncnc2c1OCCN2 | > 10 | 2.7 | 3.03 | – | –
6.36 | 1.8 | 1.28 | 1.1 | 0.23 | – | – | CNC(=O)c1cc(Oc2ccc(NC(=O)Nc3ccc(Cl)c(C(F)(F)F)c3)cc2)ccn1 [SORAFENIB] | > 10 | 0.32 | 0.23 | Non-Toxic | Active
> 10 | > 10 | > 10 | > 10 | > 10 | 0.971 | 1.07 | Cc1cc(C)cc(NC(=O)Nc2ccc(Nc3ncnc4c3OCCN4)cc2)c1 | > 10 | 7.08 | 5.65 | – | –
> 10 | 7.98 | 8.61 | 8.98 | 5.16 | 5.37 | 8.77 | CC(C)N1CCOc2c(Nc3ccc(NC(=O)Nc4cc(C(C)(C)C)on4)cc3)ncnc21 | > 10 | 3.12 | 5.1 | – | –
> 10 | > 10 | > 10 | > 10 | > 10 | 8.64 | > 10 | O=C(Nc1ccc(Nc2ncnc3c2OCCN3)cc1)Nc1cccs1 | > 10 | > 10 | > 10 | – | –
8.41 | > 10 | 0.97 | > 10 | 0.46 | – | – | COc1cc2/c(=N/c3ccc(Br)cc3F)nc[nH]c2cc1OCC1CCN(C)CC1 [VANDETANIB] | 7.15 | 0.34 | 0.14 | – | –
> 10 | 5.23 | 0.59 | 4.72 | 0.09 | 0.057 | 0.01 | CC(C)(C)c1cc(NC(=O)Nc2ccc(Nc3ncnc4c3OCCN4)cc2F)no1 | > 10 | 0.13 | 0.08 | – | –
10 | > 10 | > 10 | > 10 | > 10 | 2.35 | 2.22 | O=C(Nc1ccc(Br)cc1)Nc1ccc(Nc2ncnc3c2OCCN3)cc1 | > 10 | 8.92 | 10 | – | –
> 10 | > 10 | > 10 | > 10 | > 10 | 3.45 | 0.944 | CC(C)(C)c1cc(NC(=O)Nc2cccc(Nc3ncnc4c3OCCN4)c2)no1 | > 10 | > 10 | > 10 | – | –
> 10 | > 10 | 9.94 | > 10 | 3.07 | 0.188 | 0.177 | O=C(Nc1ccc(Nc2ncnc3c2OCCN3)cc1)Nc1ccc(Cl)c(C(F)(F)F)c1 | > 10 | 2.29 | 1.99 | – | –
> 10 | > 10 | > 10 | > 10 | 3.89 | 0.716 | 0.322 | CN1CCCOc2c(Nc3ccc(NC(=O)Nc4cc(C(C)(C)C)on4)cc3)ncnc21 | > 10 | 3.58 | 1.6 | – | –
> 10 | > 10 | > 10 | > 10 | > 10 | 1.11 | 0.781 | Cc1nc(Nc2ncnc3c2OCCN3)ccc1NC(=O)Nc1cc(C(C)(C)C)on1 | > 10 | 10 | > 10 | – | –
> 10 | 4.41 | 1.62 | 1.36 | 0.15 | 0.034 | 0.01 | CC(C)(C)c1cc(NC(=O)Nc2ccc(Nc3ncnc4c3OCCN4)cc2)no1 | > 10 | 0.11 | 0.08 | – | –
> 10 | > 10 | > 10 | > 10 | 4.12 | 0.18 | 0.077 | CC(C)(C)c1cc(NC(=O)Nc2ccc(Nc3ncnc4c3OCCN4)nc2)no1 | > 10 | 10 | 2.56 | – | –
> 10 | > 10 | > 10 | > 10 | > 10 | 2.28 | 3.07 | O=C(Nc1ccc(Cl)cc1)Nc1ccc(Nc2ncnc3c2OCCN3)cc1 | > 10 | > 10 | > 10 | – | –
> 10 | > 10 | > 10 | > 10 | > 10 | 7.59 | > 10 | O=C(Nc1ccc(Nc2ncnc3c2OCCN3)cc1)Nc1cccc(-c2ccccc2)c1 | > 10 | 10 | > 10 | – | –
9.36 | 1.53 | 1.45 | 2.8 | 0.15 | – | – | COc1cc2nccc(Oc3ccc(NC(=O)C4(C(=O)Nc5ccc(F)cc5)CC4)cc3)c2cc1OC [CABOZANTINIB] | > 10 | 0.1 | 0.2 | Non-Toxic | Active
10 | > 10 | > 10 | 8.49 | 4.4 | 0.276 | 0.306 | O=C(Nc1ccc(Nc2ncnc3c2OCCN3)cc1)Nc1ccc(C(F)(F)F)cc1 | > 10 | 3.14 | 6.65 | – | –
> 10 | > 10 | > 10 | > 10 | > 10 | 5.29 | 6.81 | COc1cccc(NC(=O)Nc2ccc(Nc3ncnc4c3OCCN4)cc2)c1 | > 10 | > 10 | > 10 | – | –
> 10 | > 10 | > 10 | > 10 | 8.06 | 0.344 | 0.324 | CN1CCOc2c(Nc3ccc(NC(=O)Nc4cc(C(C)(C)C)on4)cc3)ncnc21 | > 10 | > 10 | 4.86 | – | –
> 10 | > 10 | > 10 | > 10 | > 10 | 5.17 | 3.15 | CC(C)(C)c1csc(NC(=O)Nc2ccc(Nc3ncnc4c3OCCN4)cc2)n1 | > 10 | > 10 | > 10 | – | –
> 10 | > 10 | > 10 | > 10 | > 10 | > 10 | > 10 | O=C(Nc1ccc(Nc2ncnc3c2OCCN3)cc1)Nc1cccc2ccccc12 | > 10 | > 10 | > 10 | – | –

Reference: ChEMBL document CHEMBL4765237, “Structural optimization and structure-activity relationship studies of N-phenyl-7,8-dihydro-6H-pyrimido[5,4-b][1,4]oxazin-4-amine derivatives as a new class of inhibitors of RET and its drug resistance mutants” (Eur J Med Chem, 2018)
